Our source for the IC50 values is patent US20240218022A1, “ANTI-VISTA MACROCYCLIC PEPTIDES AND COMPOSITIONS” (BRISTOL-MYERS SQUIBB COMPANY, priority 2022, published 2024).

The target in the assay is T1, mouse VISTA (mVISTA) (Mus musculus, UniProt Q9D659).
T1 construct: expressed in transfected cells; host or cells: Human embryonic kidney 293T cells
T1 sequence (Q9D659 33-308): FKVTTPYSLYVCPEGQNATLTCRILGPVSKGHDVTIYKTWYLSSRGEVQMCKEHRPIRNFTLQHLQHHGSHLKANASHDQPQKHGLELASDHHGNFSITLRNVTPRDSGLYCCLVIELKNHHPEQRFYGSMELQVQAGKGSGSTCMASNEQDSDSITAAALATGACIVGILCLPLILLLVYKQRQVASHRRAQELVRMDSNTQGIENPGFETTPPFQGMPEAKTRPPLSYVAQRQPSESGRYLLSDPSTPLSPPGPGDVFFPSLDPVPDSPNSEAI
Kind of assay: Cell-Based Binding High-Content Assay For mVISTA (HC CBA mVISTA). The settings on record: read-out: HC CBA mVISTA IC50. The essentials:
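This high-content binding assay uses HEK293T cells expressing murine VISTA, measuring displacement of 2 nM biotinylated peptide by fluorescent streptavidin imaging. IC50 values come from four-parameter logistic fitting.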

SMILES strings stand for the structures. Starred links: 1 amine or outer side, 2 acyl side, 3 side chain; linkers in the order of their positions; H or OH if unused. Positions of bridges follow the written chain, without caps; N, C: chain ends. Non-standard residues stand in square brackets, D forms with d. Residues, ends and D or L forms follow the SMILES beside them. ξ: configuration not given here. Phe(3-CF3) = N[C@@H](Cc1cccc(C(F)(F)F)c1)C(=O)O; Phe(4-CONH2) = NC(=O)c1ccc(C[C@H](N)C(=O)O)cc1; Phe(2,4-F2) = N[C@@H](Cc1ccc(F)cc1F)C(=O)O; X1 = C=CCOc1ccccc1C[C@H](N[*:1])C(=O)[*:2]; Phe(3-Br) = N[C@@H](Cc1cccc(Br)c1)C(=O)O; Phe(3-CN) = N#Cc1cccc(C[C@H](N)C(=O)O)c1; Phe(3-Cl) = N[C@@H](Cc1cccc(Cl)c1)C(=O)O; Phe(3-Me) = Cc1cccc(C[C@H](N)C(=O)O)c1; 2Nal = N[C@@H](Cc1ccc2ccccc2c1)C(=O)O; Phe(2-Me) = Cc1ccccc1C[C@H](N)C(=O)O; Gly(cPent) = N[C@H](C(=O)O)C1CCCC1; Gly(cPr) = N[C@H](C(=O)O)C1CC1; Ahp(2) = CCCCC[C@H](N)C(=O)O; NMeNle = CCCC[C@H](NC)C(=O)O; Tle = CC(C)(C)[C@H](N)C(=O)O; NHexGly = CCCCCCNCC(=O)O; Nle = CCCC[C@H](N)C(=O)O; ξS = NC(CO)C(=O)O

Turning to `CCCCCCN1CC(=O)N[C@@H](Cc2ccc(O)cc2)C(=O)N[C@@H](CCCC)C(=O)N[C@@H](CC(N)=O)C(=O)N[C@@H](CCCNC(=N)N)C(=O)N[C@@H](CC(C)C)C(=O)N[C@@H](C2CCCC2)C(=O)N2CCC[C@H]2C(=O)N[C@@H](C(C)C)C(=O)N[C@@H](CC(=O)O)C(=O)N[C@H](C(=O)NCC(=O)O)CSCC(=O)N[C@@H](Cc2ccc3ccccc3c2)C(=O)N[C@@H](Cc2c[nH]c3ccccc23)C(=O)N[C@@H](CC(=O)O)C1=O` [compound 1181] ({CH2CO}-[2Nal]WD[NHexGly]Y[Nle]NRL[Gly(cPent)]PVDCG-OH; thioether N-14), the IC50 (commonly the point on the concentration scale where inhibition reaches its midpoint) turned out to be 15.9 nM.

`CCCCCCN1CC(=O)N[C@@H](Cc2ccc(O)cc2)C(=O)N[C@@H](CCCC)C(=O)N[C@@H](CC(N)=O)C(=O)N[C@@H](CCCNC(=N)N)C(=O)N[C@@H](CC(C)C)C(=O)N[C@@H](C2CC2)C(=O)N2CCC[C@H]2C(=O)N[C@@H](C(C)C)C(=O)N[C@@H](CC(=O)O)C(=O)N[C@H](C(=O)NCC(=O)O)CSCC(=O)N[C@@H](Cc2ccc3ccccc3c2)C(=O)N[C@@H](Cc2c[nH]c3ccccc23)C(=O)N[C@@H](CC(=O)O)C1=O` [compound 1182] ({CH2CO}-[2Nal]WD[NHexGly]Y[Nle]NRL[Gly(cPr)]PVDCG-OH; thioether N-14): the IC50 turned out to be 23.6 nM.

Take `CCCCCCN1CC(=O)N[C@@H](Cc2ccc(O)cc2)C(=O)N[C@@H](CCCC)C(=O)N[C@@H](CC(N)=O)C(=O)N[C@@H](CCCNC(=N)N)C(=O)N(C)[C@@H](CCCC)C(=O)N[C@@H](CCCCC)C(=O)N2CCC[C@H]2C(=O)N[C@@H](C(C)C)C(=O)N[C@@H](CC(=O)O)C(=O)N[C@H](C(=O)NCC(=O)O)CSCC(=O)N[C@@H](Cc2ccc3ccccc3c2)C(=O)N[C@@H](Cc2cccc(C)c2)C(=O)N[C@@H](CC(=O)O)C1=O` [compound 1200] ({CH2CO}-[2Nal][Phe(3-Me)]D[NHexGly]Y[Nle]NR[NMeNle][Ahp(2)]PVDCG-OH; thioether N-14): the IC50 was 44.8 nM.

For `CCCCCCN1CC(=O)N[C@@H](Cc2ccc(O)cc2)C(=O)N[C@@H](CCCCC)C(=O)N[C@@H](CC(N)=O)C(=O)N[C@@H](CCCNC(=N)N)C(=O)N(C)[C@@H](CCCC)C(=O)N[C@@H](CCCCC)C(=O)N2CCC[C@H]2C(=O)N[C@@H](C(C)C)C(=O)N[C@@H](CC(=O)O)C(=O)N[C@H](C(=O)NCC(=O)O)CSCC(=O)N[C@@H](Cc2ccc3ccccc3c2)C(=O)N[C@@H](Cc2ccc(F)cc2F)C(=O)N[C@@H](CC(=O)O)C1=O` [compound 1201] ({CH2CO}-[2Nal][Phe(2,4-F2)]D[NHexGly]Y[Ahp(2)]NR[NMeNle][Ahp(2)]PVDCG-OH; thioether N-14), the IC50 turned out to be 11.9 nM.

As to `CCCCCCN1CC(=O)N[C@@H](Cc2ccc(O)cc2)C(=O)N[C@@H](CCCCC)C(=O)N[C@@H](CC(N)=O)C(=O)N[C@@H](CCCNC(=N)N)C(=O)N(C)[C@@H](CCCC)C(=O)N[C@@H](CCCCC)C(=O)N2CCC[C@H]2C(=O)N[C@@H](C(C)C)C(=O)N[C@@H](CC(=O)O)C(=O)N[C@H](C(=O)NC(CO)C(=O)O)CSCC(=O)N[C@@H](Cc2ccc3ccccc3c2)C(=O)N[C@@H](Cc2ccc(F)cc2F)C(=O)N[C@@H](CC(=O)O)C1=O` (stereo partly drawn) [compound 1202] ({CH2CO}-[2Nal][Phe(2,4-F2)]D[NHexGly]Y[Ahp(2)]NR[NMeNle][Ahp(2)]PVDC[ξS]-OH; thioether N-14), the IC50 came out at 16.1 nM.

For the compound `CCCCCCN1CC(=O)N[C@@H](Cc2ccc(O)cc2)C(=O)N[C@@H](CC(C)C)C(=O)N[C@@H](CC(N)=O)C(=O)N[C@@H](CCCNC(=N)N)C(=O)N(C)[C@@H](CCCC)C(=O)N[C@@H](CCCCC)C(=O)N2CCC[C@H]2C(=O)N[C@@H](C(C)(C)C)C(=O)N[C@@H](CO)C(=O)N[C@H](C(=O)NCC(N)=O)CSCC(=O)N[C@@H](Cc2ccccc2)C(=O)N[C@@H](Cc2cccc(Br)c2)C(=O)N[C@@H](CC(=O)O)C1=O` [compound 1203] ({CH2CO}-F[Phe(3-Br)]D[NHexGly]YLNR[NMeNle][Ahp(2)]P[Tle]SCG-NH2; thioether N-14), the IC50 is 50.7 nM.

Take `CCCCCCN1CC(=O)N[C@@H](Cc2ccc(O)cc2)C(=O)N[C@@H](CC(C)C)C(=O)N[C@@H](CC(N)=O)C(=O)N[C@@H](CCCNC(=N)N)C(=O)N(C)[C@@H](CCCC)C(=O)N[C@@H](CCCCC)C(=O)N2CCC[C@H]2C(=O)N[C@@H](C(C)C)C(=O)N[C@@H](CO)C(=O)N[C@H](C(=O)NCC(N)=O)CSCC(=O)N[C@@H](Cc2ccccc2C)C(=O)N[C@@H](Cc2ccc(O)cc2)C(=O)N[C@@H](CC(=O)O)C1=O` [compound 1204] ({CH2CO}-[Phe(2-Me)]YD[NHexGly]YLNR[NMeNle][Ahp(2)]PVSCG-NH2; thioether N-14): the IC50 was determined as 18.4 nM.

On to `CCCCCCN1CC(=O)N[C@@H](Cc2ccc(O)cc2)C(=O)N[C@@H](CC(C)C)C(=O)N[C@@H](CC(N)=O)C(=O)N[C@@H](CCCNC(=N)N)C(=O)N(C)[C@@H](CCCC)C(=O)N[C@@H](CCCCC)C(=O)N2CCC[C@H]2C(=O)N[C@@H](C(C)(C)C)C(=O)N[C@@H](CO)C(=O)N[C@H](C(=O)NCC(N)=O)CSCC(=O)N[C@@H](Cc2ccccc2C)C(=O)N[C@@H](Cc2ccc(O)cc2)C(=O)N[C@@H](CC(=O)O)C1=O` [compound 1205] ({CH2CO}-[Phe(2-Me)]YD[NHexGly]YLNR[NMeNle][Ahp(2)]P[Tle]SCG-NH2; thioether N-14), for which the IC50 was determined as 16.4 nM.

With `C=CCOc1ccccc1C[C@@H]1NC(=O)CSC[C@@H](C(=O)NCC(N)=O)NC(=O)[C@H](CO)NC(=O)[C@H](C(C)(C)C)NC(=O)[C@@H]2CCCN2C(=O)[C@H](CCCCC)NC(=O)[C@H](CCCC)N(C)C(=O)[C@H](CCCNC(=N)N)NC(=O)[C@H](CC(N)=O)NC(=O)[C@H](CC(C)C)NC(=O)[C@H](Cc2ccc(O)cc2)NC(=O)CN(CCCCCC)C(=O)[C@H](CC(=O)O)NC(=O)[C@H](Cc2ccc(O)cc2)NC1=O` [compound 1206] ({CH2CO}-[X1]YD[NHexGly]YLNR[NMeNle][Ahp(2)]P[Tle]SCG-NH2; thioether N-14), the IC50 stood at 28.2 nM.

Regarding `CCCCCCN1CC(=O)N[C@@H](Cc2ccc(O)cc2)C(=O)N[C@@H](CC(C)C)C(=O)N[C@@H](CC(N)=O)C(=O)N[C@@H](CCCNC(=N)N)C(=O)N(C)[C@@H](CCCC)C(=O)N[C@@H](CCCCC)C(=O)N2CCC[C@H]2C(=O)N[C@@H](C(C)(C)C)C(=O)N[C@@H](CO)C(=O)N[C@H](C(=O)NCC(N)=O)CSCC(=O)N[C@@H](Cc2cccc(C(F)(F)F)c2)C(=O)N[C@@H](Cc2ccc(O)cc2)C(=O)N[C@@H](CC(=O)O)C1=O` [compound 1207] ({CH2CO}-[Phe(3-CF3)]YD[NHexGly]YLNR[NMeNle][Ahp(2)]P[Tle]SCG-NH2; thioether N-14), the IC50 is 24.5 nM.

With `CCCCCCN1CC(=O)N[C@@H](Cc2ccc(O)cc2)C(=O)N[C@@H](CC(C)C)C(=O)N[C@@H](CC(N)=O)C(=O)N[C@@H](CCCNC(=N)N)C(=O)N(C)[C@@H](CCCC)C(=O)N[C@@H](CCCCC)C(=O)N2CCC[C@H]2C(=O)N[C@@H](C(C)C)C(=O)N[C@@H](CO)C(=O)N[C@H](C(=O)NCC(N)=O)CSCC(=O)N[C@@H](Cc2cccc(Cl)c2)C(=O)N[C@@H](Cc2ccc(O)cc2)C(=O)N[C@@H](CC(=O)O)C1=O` [compound 1208] ({CH2CO}-[Phe(3-Cl)]YD[NHexGly]YLNR[NMeNle][Ahp(2)]PVSCG-NH2; thioether N-14), the IC50 worked out at 27.7 nM.

With `CCCCCCN1CC(=O)N[C@@H](Cc2ccc(O)cc2)C(=O)N[C@@H](CC(C)C)C(=O)N[C@@H](CC(N)=O)C(=O)N[C@@H](CCCNC(=N)N)C(=O)N(C)[C@@H](CCCC)C(=O)N[C@@H](CCCCC)C(=O)N2CCC[C@H]2C(=O)N[C@@H](C(C)(C)C)C(=O)N[C@@H](CO)C(=O)N[C@H](C(=O)NCC(N)=O)CSCC(=O)N[C@@H](Cc2cccc(Cl)c2)C(=O)N[C@@H](Cc2ccc(O)cc2)C(=O)N[C@@H](CC(=O)O)C1=O` [compound 1209] ({CH2CO}-[Phe(3-Cl)]YD[NHexGly]YLNR[NMeNle][Ahp(2)]P[Tle]SCG-NH2; thioether N-14), the IC50 came out at 33.2 nM.

Regarding `CCCCCCN1CC(=O)N[C@@H](Cc2ccc(O)cc2)C(=O)N[C@@H](CC(C)C)C(=O)N[C@@H](CC(N)=O)C(=O)N[C@@H](CCCNC(=N)N)C(=O)N(C)[C@@H](CCCC)C(=O)N[C@@H](CCCCC)C(=O)N2CCC[C@H]2C(=O)N[C@@H](C(C)(C)C)C(=O)N[C@@H](CO)C(=O)N[C@H](C(=O)NCC(N)=O)CSCC(=O)N[C@@H](Cc2cccc(C#N)c2)C(=O)N[C@@H](Cc2ccc(O)cc2)C(=O)N[C@@H](CC(=O)O)C1=O` [compound 1210] ({CH2CO}-[Phe(3-CN)]YD[NHexGly]YLNR[NMeNle][Ahp(2)]P[Tle]SCG-NH2; thioether N-14), the IC50 is 38.3 nM.

With `CCCCCCN1CC(=O)N[C@@H](Cc2ccc(O)cc2)C(=O)N[C@@H](CCCC)C(=O)N[C@@H](CC(N)=O)C(=O)N[C@@H](CCCNC(=N)N)C(=O)N(C)[C@@H](CCCC)C(=O)N[C@@H](CCCCC)C(=O)N2CCC[C@H]2C(=O)N[C@@H](C(C)C)C(=O)N[C@@H](CC(=O)O)C(=O)N[C@H](C(=O)NCC(=O)O)CSCC(=O)N[C@@H](Cc2cccc(C)c2)C(=O)N[C@@H](Cc2ccc(O)cc2)C(=O)N[C@@H](CC(=O)O)C1=O` [compound 1211] ({CH2CO}-[Phe(3-Me)]YD[NHexGly]Y[Nle]NR[NMeNle][Ahp(2)]PVDCG-OH; thioether N-14), the IC50 worked out at 22.1 nM.

`CCCCCCN1CC(=O)N[C@@H](Cc2ccc(O)cc2)C(=O)N[C@@H](CC(C)C)C(=O)N[C@@H](CC(N)=O)C(=O)N[C@@H](CCCNC(=N)N)C(=O)N(C)[C@@H](CCCC)C(=O)N[C@@H](CCCCC)C(=O)N2CCC[C@H]2C(=O)N[C@@H](C(C)(C)C)C(=O)N[C@@H](CO)C(=O)N[C@H](C(=O)NCC(N)=O)CSCC(=O)N[C@@H](Cc2ccc(C(N)=O)cc2)C(=O)N[C@@H](Cc2ccc(O)cc2)C(=O)N[C@@H](CC(=O)O)C1=O` [compound 1212] ({CH2CO}-[Phe(4-CONH2)]YD[NHexGly]YLNR[NMeNle][Ahp(2)]P[Tle]SCG-NH2; thioether N-14): the IC50 amounted to 13.1 nM.
